Assays:
[1] = system: tissue plasminogen activator (t-PA) release from HUVEC; test: t-PA release from HUVEC (ELISA); assay type: cell-based, human; settings: 24 h, HUVEC supernatants
Experimental: The influence on tissue plasminogen activator release from HUVECs was assessed using an ELISA kit (Abcam, Cambridge, UK). HUVECs seeded at a density of 10,000 per well on 96-well plates were co-incubated with compounds 1–5 at the concentrations of 0.3 and 1.0 mM for an additional 24 h (37 °C, 5% CO2). The cell supernatants were discarded into Eppendorf tubes and preserved at −20° C until analysis. Before the tests, the samples were thawed at room temperature for 15 min, and diluted 2.5-fold with diluent in Elisa kit. The measurements of t-PA concentrations in cell supernatants were conducted according to the manufacturer’s protocol using 3,3’,5,5’-tetramethylbenzidine (TMB) as a chromogenic substrate. The concentration of t-PA in HUVEC supernatants was determined using a calibration curve (R^2 = 0.9936). The results are presented as mean ± SD, n = 6. The CV for the applied method was 7.21%.

[2] = molecular target: T1, factor X (Homo sapiens, UniProt P00742); test: Factor X activity; assay type: biochemical
T1 construct: 50 µL of four-fold diluted PPP, 50 μL of deficient plasma factor X, 10 μL of the examined compound; from tissue; host or cells: platelet-poor plasma (PPP), mixed with factor X-depleted plasma (Bio-Ksel)
T1 sequence (P00742 41-488): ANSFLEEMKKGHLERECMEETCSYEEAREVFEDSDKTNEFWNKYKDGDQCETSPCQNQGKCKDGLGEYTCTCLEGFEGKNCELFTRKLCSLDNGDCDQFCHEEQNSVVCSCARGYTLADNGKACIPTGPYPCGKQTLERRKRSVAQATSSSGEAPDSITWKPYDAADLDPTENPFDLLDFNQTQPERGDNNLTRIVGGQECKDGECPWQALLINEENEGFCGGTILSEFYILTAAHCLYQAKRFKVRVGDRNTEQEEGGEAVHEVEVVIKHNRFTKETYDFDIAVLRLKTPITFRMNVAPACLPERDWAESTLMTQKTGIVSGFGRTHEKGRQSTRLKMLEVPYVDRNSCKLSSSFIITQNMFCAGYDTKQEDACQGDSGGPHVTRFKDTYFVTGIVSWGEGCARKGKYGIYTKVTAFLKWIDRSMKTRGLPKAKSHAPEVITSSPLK
Experimental: The activity of FX was measured optically using deficient plasma factor X [75]. The content of each sample was as follows: 50 µL of four-fold diluted PPP, 50 μL of deficient plasma factor X, 10 μL of the examined compound, and 100 µL PT reagent. The control samples contained 10 μL of distilled water and methanol (1:1). The measurement of PT time was recorded using a CoagChrom-3003 coagulometer (Bio-Ksel, Grudziadz, Poland). The activity of factor X was counted using a calibration curve (R^2 = 0.999) performed on a calibrator diluted in the range 1:5–1:80 [76]. The variation in plasma coagulation time is proportional to the concentration and activity of factor X in the patient plasma treated with the tested compounds. The coefficient of variability for the method was calculated as CV = 1.80%. The reference values for factor X activity ranged from 77–131%.

[3] = system: HUVEC cells; test: Glucose utilization assay (2-NBDG uptake); assay type: cell-based, human; settings: 24 h, then insulin and 2-NBDG
Experimental: HUVEC were seeded at a density of 20,000 cells per well in 48-well plates, and were cultured in standard conditions for 24 h (medium EGM-2; volume 0.2 mL). Following this, compounds 1–8 were added at concentrations of 0.1 and 0.3 mM, and the HUVECs were incubated for another 24 h. Cells treated with ᴅ-glucose (final concentration in a sample 0.1 mM) were used as positive controls. On the following day, the cells were rinsed with PBS (Biomed Lublin, Lublin, Poland) and cultured for two hours in glucose-free DMEM medium supplemented with 1% BSA (bovine serum albumin, Sigma, St. Louis, MO, USA). Then, the cells were co-treated with insulin (final concentration 0.0001 mM) for 30 min. Afterwards, the medium was discarded and the cells were treated with 2-NBDG (final concentration 0.05 mM) for 30 min, followed by removal of the solutions of each well. The cells were washed twice with 100 µL PBS, and lysed using 1% Triton X-100 solution in PBS. The fluorescence was recorded using a microplate reader (Biotek, Instruments, Winooski, VT, USA) at 480/530 nm.
The concentration of intracellular 2-NBDG was calculated using a calibration curve obtained using 2-NBDG at concentrations ranging from 0.0001 to 0.025 mM in lysis buffer. The results are presented as mean ± SD, n = 4–6. The coefficient of variation for the assay was calculated (CV = 2.2%, n = 8).

[4] = system: human plasma (platelet poor plasma); test: Basic coagulation tests: PT, INR, APTT, TT; assay type: biochemical; settings: for TT: thrombin 3.0 UNIH/mL
Experimental: The blood was collected into vacuum tubes stuffed with 3.2% buffered sodium citrate. Platelet poor plasma (PPP) was obtained by centrifugation at 3000× g for 10 min at room temperature using a Micro 22R centrifuge (Hettich Zentrifugen, Tuttlingen, Germany). The obtained PPP was stored in small aliquots for up to one month at –30° C. Before each experiment, PPP was restored at 37 °C for 15 min. Once thawed, the PPP was not frozen again nor used for retesting.
The effects of biguanidines (1–5) on the basic coagulation parameters (PT, INR, APTT, and TT) were carried out using a CoagChrom-3003 coagulometer (Bio-Ksel, Grudziądz, Poland), according to the routine laboratory diagnostic procedure. The studies were performed in multiplicate (n = 4–7). The control samples containing distilled water and methanol (1:1) were also included.
The results are presented as mean ± standard deviation (SD). The methods were validated, and coefficients of variability for all experiments were calculated (PT: CV = 10.25%, APTT: CV = 8.55%, TT: CV = 4.87%). The reference values for each test are as follows: PT: 9.7–14.6 s; APTT: 26.7–40.0 s; TT: 14.0–18.0 s for 3.0 UNIH/mL of thrombin.

Structure (SMILES) | Released t-PA ([1]; 0.3 mM) | Released t-PA ([1]; 1.0 mM) | Factor X activity ([2]; 0.3 mM) | Factor X activity ([2]; 0.6 mM) | Factor X activity ([2]; 1.5 mM) | Glucose uptake (intracellular 2-NBDG) ([3]; 0.1 mM) | Glucose uptake (intracellular 2-NBDG) ([3]; 0.3 mM) | APTT ([4]; 0.006 mM) | INR ([4]; 0.006 mM) | PT ([4]; 0.006 mM) | TT ([4]; 0.006 mM) | APTT ([4]; 0.06 mM) | INR ([4]; 0.06 mM) | PT ([4]; 0.06 mM) | TT ([4]; 0.06 mM) | APTT ([4]; 0.3 mM) | INR ([4]; 0.3 mM) | PT ([4]; 0.3 mM) | TT ([4]; 0.3 mM) | APTT ([4]; 0.6 mM) | other results
CCCCCCCCS(=O)(=O)NC(N)=NC(=N)N(C)C [Compound 2] | 1633.9 ± 263.2 pg/mL | 990.0 ± 158.5 pg/mL | 107.40 ± 6.19% | 104.00 ± 5.34% | 107.00 ± 4.00% | 0.0139 ± 0.0003 mM | 0.0146 ± 0.001 mM | 30.79 ± 5.87 s | 1.07 ± 0.15 | 13.30 ± 1.81 s | 14.14 ± 0.59 s | 31.33 ± 5.53 s | 1.03 ± 0.10 | 12.82 ± 1.33 s | 13.86 ± 0.80 s | 33.49 ± 4.85 s | 1.05 ± 0.11 | 13.10 ± 1.37 s | 13.48 ± 2.10 s | 33.46 ± 5.59 s | INR ([4]; 0.6 mM): 1.04 ± 0.11; PT ([4]; 0.6 mM): 12.96 ± 1.42 s; TT ([4]; 0.6 mM): 14.40 ± 2.35 s; APTT ([4]; 1.5 mM): 34.83 ± 6.22 s; INR ([4]; 1.5 mM): 1.06 ± 0.10; PT ([4]; 1.5 mM): 13.20 ± 1.23 s; TT ([4]; 1.5 mM): 16.32 ± 2.21 s
CN(C)C(=N)N=C(N)NS(=O)(=O)C1CCCCC1 [Compound 3] | 1550.9 ± 135.2 pg/mL | 1267.1 ± 350.6 pg/mL | 105.60 ± 2.30% | 103.40 ± 7.23% | 104.20 ± 8.14% | 0.0137 ± 0.0003 mM | 0.0144 ± 0.0005 mM | 32.97 ± 5.06 s | 1.00 ± 0.11 | 12.52 ± 1.42 s | 13.18 ± 1.97 s | 34.50 ± 4.52 s | 1.04 ± 0.15 | 13.02 ± 1.90 s | 13.14 ± 2.01 s | 33.00 ± 5.70 s | 1.09 ± 0.11 | 13.60 ± 1.39 s | 13.46 ± 1.97 s | 33.17 ± 5.34 s | INR ([4]; 0.6 mM): 1.09 ± 0.18; PT ([4]; 0.6 mM): 13.66 ± 2.27 s; TT ([4]; 0.6 mM): 13.50 ± 1.74 s; APTT ([4]; 1.5 mM): 32.49 ± 7.50 s; INR ([4]; 1.5 mM): 1.06 ± 0.18; PT ([4]; 1.5 mM): 13.30 ± 2.30 s; TT ([4]; 1.5 mM): 14.06 ± 1.60 s
CCCCS(=O)(=O)NC(N)=NC(=N)N(C)C [Compound 1] | 2427.2 ± 246.0 pg/mL | 1709.5 ± 219.1 pg/mL | 107.60 ± 4.62% | 104.20 ± 4.97% | 97.40 ± 8.05% | 0.0134 ± 0.0004 mM | 0.0142 ± 0.0007 mM | 35.12 ± 4.75 s | 1.04 ± 0.19 | 13.04 ± 2.41 s | 14.03 ± 0.94 s | 33.36 ± 1.78 s | 1.11 ± 0.23 | 12.78 ± 1.86 s | 12.98 ± 1.08 s | 33.76 ± 2.53 s | 1.08 ± 0.22 | 13.46 ± 2.71 s | 13.90 ± 1.24 s | 34.68 ± 3.31 s | INR ([4]; 0.6 mM): 1.05 ± 0.19; PT ([4]; 0.6 mM): 13.08 ± 2.36 s; TT ([4]; 0.6 mM): 12.64 ± 1.31 s; APTT ([4]; 1.5 mM): 34.68 ± 5.21 s; INR ([4]; 1.5 mM): 1.08 ± 0.23; PT ([4]; 1.5 mM): 13.48 ± 2.93 s; TT ([4]; 1.5 mM): 13.03 ± 0.86 s

Source: article PMC9029893 (International Journal of Molecular Sciences, 2022)
